Data on five compounds can be found in patent US20260297121A1, “MITHRAMYCIN (MTM) 2’ OXIMES” (University of Kentucky Research Foundation, priority 2023, published 2026).

pIC50: −log10 of the molar value. Where two headings read alike, the source gives them in different places.

The nature of one data set: log P. The class given is physicochemical.
Data set [1] in a line: Clearance (CL) / pharmacokinetics. The following applies: for clearance: mouse, plasma, iv. The class given is in vivo, mice. As to the method:
(§1) Exemplary compounds of the presently-disclosed subject matter were assessed for activity, including clearance, potency, and selectivity. Results from studies are compiled in Tables 2-4.
(§2) Desirable clearance was identified at lower values of mL hr^−1kg^−1 (e.g., about ≤10 mL hr^−1 kg^−1), desirable potency was identified at lower values of IC50 (e.g., about ≤10 nM in TC32 cells), and desired selectivity was identified at higher ratios of IC50 in PC3/IC50 in TC32 (e.g. about >10).
Pharmacokinetics of exemplary compounds of the presently-disclosed subject matter were studied in mice following bolus IV dosing. Groups of three mice were administered the compound(s) and blood samples were collected via saphenous bleed. Plasma was separated by centrifugation and extracted to quantitate analytes by LC/MS/MS. Sample analysis followed upon the system meeting system suitability criteria customary for fit for purpose analytical methods. FIG. 1A includes data comparing YL-C09 to mithramycin (MTM) dosed separately. FIG. 1B includes data for YL-B171, YL-C110 and MTM dosed in cassette format.

The next data set concerns TC32 cells. In words: Potency IC50 in TC32 cells and selectivity. The following applies: Homo sapiens, TC-32, Table 2, read-out: IC50 TC32. The class given is cell-based. As to the method:
as §1, §2

The subject of data set [2] is PC3. Briefly: IC50 in PC3 cells. The class given is cell-based. Conditions: head prints PC2, text PC3. As to the method:
as §1, §2

Another data set concerns TC32. In words: Cytotoxicity, resazurin fluorescence, TC32. The class given is cell-based. The following applies: Homo sapiens, TC-32, 72 h, read-out: GI50 TC32, Table 5. As to the method: (§3) Exemplary compounds of the presently-disclosed subject matter were assessed for cytotoxicity (Table 5) in Ewing sarcoma (TC32) and non-Ewing (PC3 prostate cancer). […] Cells (1000-5000/well) were seeded in 96-well plates and allowed to attach and grow for 24 hr prior to adding compounds in half-log increments from 0.3 nM-10 μM. Cell viability was assessed after 72 hr continuous incubation with compounds using resazurin fluorescence. GI50 values were estimated using GraphPad Prism.
(In general: Alamar Blue is a resazurin reagent that responds to reducing activity.)

Data set [3] deals with PC3. In words: Cytotoxicity, resazurin fluorescence, PC3. The class given is cell-based. The following applies: for GI50: Homo sapiens, PC-3, 72 h, read-out: GI50 PC3, Table 5; for GI50 PC3: Table 5, 72 hr. As to the method:
as §3

Where [4] appears, read: Homo sapiens, PC-3, read-out: IC50 PC2, Table 2.

The term logP denotes the decadic logarithm of the partition coefficient of the neutral form, usually between octanol and water. As usually defined, the clearance is the volume of plasma or blood freed of the substance per unit of time. Usually pIC50 stands for the IC50 on a negative log10 scale, so that one unit is a factor of ten. For orientation: GI50 means the concentration at which growth is held to half of that of the control. Turning to `CO[C@H](C(=NOCCNC(=O)c1[nH]c2ccc(F)cc2c1-c1ccc(Cl)cc1)[C@@H](O)[C@@H](C)O)[C@@H]1Cc2cc3cc(O[C@H]4C[C@@H](O[C@H]5C[C@@H](O)[C@H](O)[C@@H](C)O5)[C@H](O)[C@@H](C)O4)c(C)c(O)c3c(O)c2C(=O)[C@H]1O[C@H]1C[C@@H](O[C@H]2C[C@@H](O[C@H]3C[C@](C)(O)[C@H](O)[C@@H](C)O3)[C@@H](O)[C@@H](C)O2)[C@H](O)[C@@H](C)O1` [YL-C118], the lipophilicity (logP) in “log P” (Table 2) worked out at 3.64. In data set [1] (Table 2), this compound gave a clearance of 0.467 mL/min/kg. Further, the pIC50 with TC32 cells was 7.44; in the data set on PC3 [2] (setting [4]), 6.24. For the same compound, the GI50 in the data set on TC32 is 232 nM; in the data set with PC3 [3], 417 nM.

The compound `COC(C(=NOCc1[nH]c2ccc(Cl)cc2c1-c1ccccc1)C(O)C(C)O)C1Cc2cc3cc(OC4CC(OC5CC(O)C(O)C(C)O5)C(O)C(C)O4)c(C)c(O)c3c(O)c2C(=O)C1OC1CC(OC2CC(OC3CC(C)(O)C(O)C(C)O3)C(O)C(C)O2)C(O)C(C)O1` (centres unmarked) [YL-C51] showed a logP in the data set “log P” (Table 2) of 4.19. This compound also showed a clearance in data set [1] (Table 2) of 0.25 mL/min/kg. For the same compound, the pIC50 in the data set with TC32 cells is 6.34; in the data set with PC3 [2] (setting [4]), 5.55. Also, the GI50 in the data set on TC32 was above 1000 nM. The GI50 PC3 with PC3 [3] was above 1000 nM.

As to `CO[C@H](C(=NOCCNC(=O)c1[nH]c2ccc(Cl)cc2c1-c1cncnc1)[C@@H](O)[C@@H](C)O)[C@@H]1Cc2cc3cc(O[C@H]4C[C@@H](O[C@H]5C[C@@H](O)[C@H](O)[C@@H](C)O5)[C@H](O)[C@@H](C)O4)c(C)c(O)c3c(O)c2C(=O)[C@H]1O[C@H]1C[C@@H](O[C@H]2C[C@@H](O[C@H]3C[C@](C)(O)[C@H](O)[C@@H](C)O3)[C@@H](O)[C@@H](C)O2)[C@H](O)[C@@H](C)O1` [YL-C122], the logP in “log P” (Table 2) was 1.73. Further, the clearance in data set [1] (Table 2) is 0.683 mL/min/kg. Besides, the pIC50 is 7.73 in the data set with TC32 cells and 6.91 with PC3 [2] (setting [4]). Also, the GI50 in the data set on TC32 is 162 nM; in the data set on PC3 [3] it was 477 nM.

In “log P” (Table 2), `CO[C@H](C(=NOCCNC(=O)c1[nH]c2ccc(Cl)cc2c1-c1cnn(C)c1)[C@@H](O)[C@@H](C)O)[C@@H]1Cc2cc3cc(O[C@H]4C[C@@H](O[C@H]5C[C@@H](O)[C@H](O)[C@@H](C)O5)[C@H](O)[C@@H](C)O4)c(C)c(O)c3c(O)c2C(=O)[C@H]1O[C@H]1C[C@@H](O[C@H]2C[C@@H](O[C@H]3C[C@](C)(O)[C@H](O)[C@@H](C)O3)[C@@H](O)[C@@H](C)O2)[C@H](O)[C@@H](C)O1` [YL-C102] gave a lipophilicity (logP) of 2.26. In addition, the figures for the pIC50 in the data set with TC32 cells and in the data set with PC3 [2] (setting [4]) were 8.13 and 7.37, respectively. In addition, the GI50 with TC32 is 49 nM; in the data set on PC3 [3], 334 nM.

One may read the log P as a log measure of how a compound divides between an organic and an aqueous phase. Higher therefore signals a more lipophilic compound. Consider `CO[C@H](C(=NOCCNC(=O)c1[nH]c2ccc(C(F)(F)F)cc2c1-c1ccc(Cl)cc1)[C@@H](O)[C@@H](C)O)[C@@H]1Cc2cc3cc(O[C@H]4C[C@@H](O[C@H]5C[C@@H](O)[C@H](O)[C@@H](C)O5)[C@H](O)[C@@H](C)O4)c(C)c(O)c3c(O)c2C(=O)[C@H]1O[C@H]1C[C@@H](O[C@H]2C[C@@H](O[C@H]3C[C@](C)(O)[C@H](O)[C@@H](C)O3)[C@@H](O)[C@@H](C)O2)[C@H](O)[C@@H](C)O1` [YL-C67], for which the “log P” value in the data set “log P” (Table 2) amounted to 4.56; in the data set “log P” (Table 3), 4.56; in “log P” (Table 4) it was 4.6. The CL in data set [1] (Table 2), in data set [1] (Table 3) and in data set [1] (Table 4) was 0.167 mL/min/kg each time. Also, the “PK Improvement” value in data set [1] (Table 4) is listed as 157.8. This compound gave a pIC50 in the data set with PC3 [2] (Table 3) of 5.91. This compound also gave a GI50 PC3 in the data set on PC3 [3] above 1000 nM.
